These results are taken from US20020107401A1, “Production of phosphonopyrazoles” (MONSNTO TECHNOLOGY LLC., priority 2000, published 2002).

This assay has as its system wheat variety 'OSLO'. Put plainly: Chemical hybridizing agent assay for male sterility (male gametocidal activity), foliar spray, seed counts. It is filed as in vivo. The following applies: Table 2, foliar. The method, then: The compounds of structure 3 and analogs are applied at a rate of 50-1000 μg/plant to cause pollen sterility. The male gametocidal activity is determined on the wheat variety ‘OSLO’, a double-dwarf hard red spring wheat. The wheat seed is planted to a depth of 0.5 to 1 inch (1-2.5 cm) in a 6-inch long (15 cm) conetainer (a cone shaped container, one seed per conetainer). The conetainers are filled with Metromix 200 potting soil supplemented with a slow release fertilizer, Osmocote and Sierra combined at 93 g/cu ft soil for a NPK of 31-20-24. Micromax with micronutrients is added at 17 g/cu ft rate. Fertilizer supplier is Hummerts, Earth City, Mo. 63045. The RLC-4 conetainers are 1×6 inch (2.5×15 cm) with a capacity of 4 cu in. (Stuewe & Sons, Inc., Corvallis, Oreg., 97333-9461). These are loaded into racks of 100 that occupy a 1.0 ft by 1.0 ft area. After seeding, the racks are placed in growth chambers with 14/10 hour day/night cycle at 18° C. These chambers are equipped with metal halide lamps that deliver approximately 300 μE/m^2/sec. Humidity is maintained at 50%, and plants are watered as needed. Approximately six weeks after seeding, wheat plants are selected for chemical application at or just prior to flag-leaf emergence from the boot (Feekes Scale 7.5-8.0) (Large, 1954. Plant Pathology 3:128-129). Plants are placed in a rack containing cardboard dividers to prevent each from being cross contaminated by an adjacent spray. The following procedures are used to evaluate the activity of the compounds of the invention for inducing male sterility in cereals. The plant heights vary and as uniformity is required for chemical application, the top 0-10 cm are removed by excision, such that the plant height is flush with the top of the divider. Prior to application, a 50 mL solution of DMSO (dimethylsulfoxide) containing the chemical hybridizing agent is diluted with 150 mL of water containing 1% SILWET L-77 surfactant (Witco Corp., Greenwich, Conn. 06831-2559) plus 2% humectant (glycerin, supplied by VWR Scientific Products Co.). The formulated chemicals are applied foliarly as an atomized spray onto the plants. After application, the plants are moved into growth chambers and allowed to grow until the heads emerge from the boot. Prior to anther extrusion (approximately 10 to 14 days after treatment), the plants are placed back into dividers in order to isolate the seed heads and to prevent cross-pollination. The plants are moved to a greenhouse, which has similar environmental conditions as the growth chambers. Approximately one week later (3 weeks after treatment (WAT) and at anther extrusion), open head morphology ratings are initiated. Plants are rated four times over a period of eight days (Table 2). The chemical hybridizing agent Genesis® (a registered Trade Mark of the Monsanto Co) is used as the positive control and for comparative purposes as to the rate of application and the efficacy as determined by percent sterility. The negative control is treatment of the wheat plants with the compounds making up the formulation of surfactant and humectant without the chemical compositions being assayed as chemical hybridizing agents. The data in Table 2 is expressed as % Sterility=(1-(Ave. normalized seed counts of sample/Ave. normalized seed counts of controls))*100 with the treatments comprising foliar application and rate titration at Feekes stage 8, across five replicates. Approximately two weeks after open head ratings are completed (six WAT), seed counts are collected.

For `COP(=O)(OC)c1c(-c2ccccc2)nn(-c2cc(C)cc(C)c2)c1O` [Compound 10b, Dimethyl[1-(3,5-dimethylphenyl)-5-hydroxy-3-phenyl-1H-pyrazol-4-yl]phosphonate], the “Sterility (%)” value is, setting by setting: (rate 50 μg/plant, Feekes 8) 5%; (rate 125 μg/plant, Feekes 8) 0%; (rate 250 μg/plant, Feekes 8) 11%; (rate 500 μg/plant, Feekes 8) 33%; (rate 1000 μg/plant, Feekes 8) 45%.

With “methyl potassium[4-chlorophenyl-3-hydroxy-1H-pyrazol-4-yl]phosphonate [Compound 3m]”, the “Sterility (%)” value is 23% (rate 50 μg/plant, Feekes 6); 28% (rate 50 μg/plant, Feekes 8); 0% (rate 125 μg/plant, Feekes 6); 20% (rate 125 μg/plant, Feekes 8); 31% (rate 250 μg/plant, Feekes 6); 16% (rate 250 μg/plant, Feekes 8). The “Sterility (%)” value by setting is: (rate 500 μg/plant, Feekes 6) 43%; (rate 500 μg/plant, Feekes 8) 15%.
